Measured values: patent publication US20180000085A1, “USE OF PICOLINAMIDE COMPOUNDS WITH FUNGICIDAL ACTIVITY” (DOW AGROSCIENCES LLC, priority 2014, published 2018)

Tests used:
Zymoseptoria tritici = assay: Leaf blotch of wheat (SEPTTR) disease control on wheat seedlings; type: in vivo; set-up: key to SEPTTR 1DP, HV activity at 100 ppm (% control rating) / SEPTTR 3DC, HV activity at 100 ppm (% control rating) / SEPTTR disease control, 1DP / SEPTTR disease control, 3DC / SEPTTR 1DP disease control rating, HV activity / SEPTTR 3DC disease control rating, HV activity / SEPTTR 3DC, LV activity at 125.1 g/H (% Control rating) / SEPTTR 1DP, LV activity at 125.1 g/H (% Control rating) / SEPTTR 1DP disease control rating, LV activity at 125.1 g/H / SEPTTR 3DC disease control rating, LV activity at 125.1 g/H / SEPTTR 3DC disease control rating, HV activity at 100 ppm / SEPTTR 1DP disease control rating, HV activity at 100 ppm / HV activity at 100 ppm SEPTTR 3DC (disease control rating) / HV activity at 100 ppm SEPTTR 1DP (disease control rating) / LV activity at 125.1 g/H SEPTTR 1DP (disease control rating) / LV activity at 125.1 g/H SEPTTR 3DC (disease control rating): A: > 80; B: ≤ 80; C: Not Tested; D: No Activity Observed in the Reported Assay; settings: for SEPTTR 1DP disease control rating, HV activity at 100 ppm / SEPTTR 3DC disease control rating, HV activity at 100 ppm: high volume application; for SEPTTR 1DP disease control rating, HV activity / SEPTTR 3DC disease control rating, HV activity: HV application at 100 ppm, wheat leaf blotch; for SEPTTR 1DP disease control rating, HV activity / SEPTTR 1DP, LV activity at 125.1 g/H (% Control rating): 1 Day Protectant; for SEPTTR 3DC disease control rating, HV activity / SEPTTR 3DC, LV activity at 125.1 g/H (% Control rating): 3 Day Curative
Puccinia triticina = assay: Wheat brown rust (PUCCRT) disease control on wheat seedlings; type: in vivo; set-up: key to PUCCRT 3DC, HV activity at 100 ppm (% control rating) / PUCCRT disease control, 3DC / PUCCRT 1DP disease control rating, HV activity / PUCCRT 3DC disease control rating, HV activity / PUCCRT 3DC, LV activity at 125.1 g/H (% Control rating) / PUCCRT 1DP, LV activity at 125.1 g/H (% Control rating) / PUCCRT 3DC disease control rating, LV activity at 125.1 g/H / PUCCRT 1DP disease control rating, LV activity at 125.1 g/H / PUCCRT 3DC disease control rating, HV activity at 100 ppm / PUCCRT 1DP disease control rating, HV activity at 100 ppm / HV activity at 100 ppm PUCCRT 3DC (disease control rating) / LV activity at 125.1 g/H PUCCRT 1DP (disease control rating) / LV activity at 125.1 g/H PUCCRT 3DC (disease control rating): A: > 80; B: ≤ 80; C: Not Tested; D: No Activity Observed in the Reported Assay; settings: for PUCCRT 1DP disease control rating, HV activity at 100 ppm / PUCCRT 3DC disease control rating, HV activity at 100 ppm: high volume application; for PUCCRT 1DP disease control rating, HV activity / PUCCRT 3DC disease control rating, HV activity: HV application at 100 ppm, wheat brown rust; for PUCCRT 1DP disease control rating, HV activity / PUCCRT 1DP, LV activity at 125.1 g/H (% Control rating): 1 Day Protectant; for PUCCRT 3DC disease control rating, HV activity / PUCCRT 3DC, LV activity at 125.1 g/H (% Control rating): 3 Day Curative
[1] = low volume application, 125.1 g/H
[2] = low volume application, 125.1 g/H, 1 day protectant
[3] = low volume application, 125.1 g/H, 3 day curative

COc1ccnc(C(=O)N[C@@H](C)C(=O)O[C@@H](C)[C@H](OCC2CC2)C(C)(C)C)c1O [Cmpd 1004]
SEPTTR 1DP disease control rating, HV activity at 100 ppm (Zymoseptoria tritici; 1 day protectant): B (≤ 80) | SEPTTR 3DC disease control rating, HV activity at 100 ppm (Zymoseptoria tritici; 3 day curative): B (≤ 80) | PUCCRT 1DP disease control rating, HV activity at 100 ppm (Puccinia triticina; 1 day protectant): A (> 80) | PUCCRT 3DC disease control rating, HV activity at 100 ppm (Puccinia triticina; 3 day curative): A (> 80)

CCC(CC)[C@@H](Oc1cc(F)cc(Cl)c1)[C@H](C)OC(=O)[C@@H](NC(=O)c1nccc(OC)c1O)C(C)C [Cmpd 410]
SEPTTR 1DP disease control rating, HV activity (Zymoseptoria tritici): B (≤ 80) | SEPTTR 3DC disease control rating, HV activity (Zymoseptoria tritici): B (≤ 80) | PUCCRT 1DP disease control rating, HV activity (Puccinia triticina): A (> 80) | PUCCRT 3DC disease control rating, HV activity (Puccinia triticina): B (≤ 80)

C=CC[C@@H](Oc1ccc(F)cc1F)[C@H](C)OC(=O)[C@H](C)NC(=O)c1nccc(OC)c1O [Cmpd 1023]
SEPTTR 1DP disease control rating, HV activity at 100 ppm (Zymoseptoria tritici; 1 day protectant): D | SEPTTR 3DC disease control rating, HV activity at 100 ppm (Zymoseptoria tritici; 3 day curative): B (≤ 80) | PUCCRT 1DP disease control rating, HV activity at 100 ppm (Puccinia triticina; 1 day protectant): A (> 80) | PUCCRT 3DC disease control rating, HV activity at 100 ppm (Puccinia triticina; 3 day curative): A (> 80)

CC[C@H](CC1CCCC1)[C@@H](OCC1CC1)[C@H](C)OC(=O)[C@H](C)NC(=O)c1nccc(OC)c1OC(C)=O [Cmpd 508]
SEPTTR 1DP, LV activity at 125.1 g/H (% Control rating) (Zymoseptoria tritici; [1]): B (≤ 80) | SEPTTR 3DC, LV activity at 125.1 g/H (% Control rating) (Zymoseptoria tritici; [1]): B (≤ 80) | PUCCRT 1DP, LV activity at 125.1 g/H (% Control rating) (Puccinia triticina; [1]): B (≤ 80) | PUCCRT 3DC, LV activity at 125.1 g/H (% Control rating) (Puccinia triticina; [1]): B (≤ 80)

COc1ccnc(C(=O)N[C@@H](C)C(=O)O[C@@H](C)[C@H](Oc2ccc(C)cc2)C2CCCC2)c1O [Cmpd 846, (S)-(1R,2S)-1-cyclopentyl-1-(p-tolyloxy)propan-2-yl-2-(3-hydroxy-4-methoxypicolinamido)propanoate]
SEPTTR 1DP disease control rating, HV activity at 100 ppm (Zymoseptoria tritici; 1 day protectant): B (≤ 80) | SEPTTR 3DC disease control rating, HV activity at 100 ppm (Zymoseptoria tritici; 3 day curative): B (≤ 80) | PUCCRT 1DP disease control rating, HV activity at 100 ppm (Puccinia triticina; 1 day protectant): A (> 80) | PUCCRT 3DC disease control rating, HV activity at 100 ppm (Puccinia triticina; 3 day curative): A (> 80)

CC[C@H](Cc1ccc(F)cc1)[C@@H](Oc1ccccc1)[C@H](C)OC(=O)[C@H](C)NC(=O)c1nccc(OC)c1OC(=O)C(C)C [Cmpd 473]
SEPTTR 1DP, LV activity at 125.1 g/H (% Control rating) (Zymoseptoria tritici; [1]): B (≤ 80) | SEPTTR 3DC, LV activity at 125.1 g/H (% Control rating) (Zymoseptoria tritici; [1]): B (≤ 80) | PUCCRT 1DP, LV activity at 125.1 g/H (% Control rating) (Puccinia triticina; [1]): A (> 80) | PUCCRT 3DC, LV activity at 125.1 g/H (% Control rating) (Puccinia triticina; [1]): D

COc1ccnc(C(=O)NC(C)C(=O)OC(C)C(OC(=O)c2ccccc2)C(C)C)c1O (centres unmarked) [Cmpd 431]
SEPTTR 1DP disease control rating, HV activity (Zymoseptoria tritici): D | SEPTTR 3DC disease control rating, HV activity (Zymoseptoria tritici): D | PUCCRT 1DP disease control rating, HV activity (Puccinia triticina): A (> 80) | PUCCRT 3DC disease control rating, HV activity (Puccinia triticina): D

COc1ccnc(C(=O)N[C@@H](C)C(=O)O[C@@H](C)[C@H](Oc2cc(F)cc(Cl)c2)C(C)C)c1OC(C)=O [Cmpd 628]
SEPTTR 1DP, LV activity at 125.1 g/H (% Control rating) (Zymoseptoria tritici; [1]): B (≤ 80) | SEPTTR 3DC, LV activity at 125.1 g/H (% Control rating) (Zymoseptoria tritici; [1]): A (> 80) | PUCCRT 1DP, LV activity at 125.1 g/H (% Control rating) (Puccinia triticina; [1]): A (> 80) | PUCCRT 3DC, LV activity at 125.1 g/H (% Control rating) (Puccinia triticina; [1]): A (> 80)

COc1ccnc(C(=O)N[C@@H](C)C(=O)O[C@@H](C)COC(=O)C(C)C)c1O [Cmpd 336]
SEPTTR 1DP disease control rating, HV activity (Zymoseptoria tritici): B (≤ 80) | SEPTTR 3DC disease control rating, HV activity (Zymoseptoria tritici): B (≤ 80) | PUCCRT 1DP disease control rating, HV activity (Puccinia triticina): D | PUCCRT 3DC disease control rating, HV activity (Puccinia triticina): D

COc1cccc(O[C@@H]([C@H](C)OC(=O)[C@H](C)NC(=O)c2nccc(OC)c2O)C(C)(C)C)c1 [Cmpd 1015]
SEPTTR 1DP disease control rating, HV activity at 100 ppm (Zymoseptoria tritici; 1 day protectant): B (≤ 80) | SEPTTR 3DC disease control rating, HV activity at 100 ppm (Zymoseptoria tritici; 3 day curative): B (≤ 80) | PUCCRT 1DP disease control rating, HV activity at 100 ppm (Puccinia triticina; 1 day protectant): A (> 80) | PUCCRT 3DC disease control rating, HV activity at 100 ppm (Puccinia triticina; 3 day curative): A (> 80)

CCC(CC)C(Oc1cccc(F)c1)C(C)OC(=O)C(C)NC(=O)c1nccc(OC)c1OC(C)=O (centres unmarked) [Cmpd 673]
SEPTTR 1DP disease control rating, LV activity at 125.1 g/H (Zymoseptoria tritici; [2]): B (≤ 80) | SEPTTR 3DC disease control rating, LV activity at 125.1 g/H (Zymoseptoria tritici; [3]): A (> 80) | PUCCRT 1DP disease control rating, LV activity at 125.1 g/H (Puccinia triticina; [2]): A (> 80) | PUCCRT 3DC disease control rating, LV activity at 125.1 g/H (Puccinia triticina; [3]): B (≤ 80)
